Measured values published in US7479478B2, “Human parathyroid hormone modifications, preparation and use” (The General Hospital Corporation, priority 1998, dated 2009).
“Also recorded” adds a separate entry of the source. No end group written: not given here.

Columns and labels:
human PTH-1 receptors [1] = target: T1, human PTH-1 receptors (Homo sapiens, UniProt Q03431); experiment: Intracellular cAMP accumulation (adenylyl cyclase, AC, activation) in HKRK B7 cells; assay type: cell-based; conditions: HKRK B7 cells; for AC activation (cAMP accumulation), result in words: compared with hPTH-(1-34) or parent peptide
T1 construct: expressed in transfected cells
T1 sequence (Q03431 27-593): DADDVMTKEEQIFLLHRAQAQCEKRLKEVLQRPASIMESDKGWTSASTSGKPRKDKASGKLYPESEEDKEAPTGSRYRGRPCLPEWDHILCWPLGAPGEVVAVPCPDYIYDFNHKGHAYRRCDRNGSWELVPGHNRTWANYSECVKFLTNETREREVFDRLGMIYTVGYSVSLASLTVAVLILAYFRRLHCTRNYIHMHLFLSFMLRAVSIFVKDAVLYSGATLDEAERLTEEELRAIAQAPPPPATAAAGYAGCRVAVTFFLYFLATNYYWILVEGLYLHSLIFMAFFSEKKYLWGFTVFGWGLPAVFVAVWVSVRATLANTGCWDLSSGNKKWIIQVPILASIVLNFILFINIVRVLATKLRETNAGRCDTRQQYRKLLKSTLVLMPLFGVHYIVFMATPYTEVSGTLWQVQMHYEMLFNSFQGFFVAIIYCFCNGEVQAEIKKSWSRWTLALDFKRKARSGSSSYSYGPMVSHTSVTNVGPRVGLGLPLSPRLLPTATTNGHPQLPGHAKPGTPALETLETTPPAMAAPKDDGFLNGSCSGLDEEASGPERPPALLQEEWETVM
Procedure: HKRK B7 or EW5 cells (32), subclones of LLC-PKI renal epithelial cells that stably express human or rat PTH-1 receptors (950,000 and 320,000 receptors/cell, respectively), were maintained under 5% CO2 in air in Dulbecco's modified essential medium containing 7% fetal bovine serum (FBS) and 1% penicillin/streptomycin (GIBCO-BRL, Grand Island, N.Y.). HEK-293 and COS-7 cells were cultured similarly, except that 10% FBS was used in the medium. Cells were seeded into 24-well plates two days before assay at a density of 2-2.5×10^5 cells/well (HKRK B7 or EW 5 cells) or 6×10^5 cells/well (in 6-well plates) (HEK-293 cells). In experiments involving HEK-293 cells, DNA transfections were performed 24 hr after plating and inositol radiolabel was added 24 hr thereafter (see below). COS-7 cell transfections were performed as previously described (Gardella, T. J., et al., Endocrinology 132(5):2024-2030 (1993)) Intracellular cAMP accumulation, PLC activation and PTHR binding affinity were measured as previously reported (Bringhurst, F. R., et al., Endocrinology 132(5):2090-2098 (1993); Guo, J., et al., Endocrinology 136(9):3884-3891 (1995)). Intracellular cAMP accumulation was measured in extracts of cells that were exposed to human PTH peptides in the presence of isobutylmethyxanthine (IBMX, 1 mM) at 37° C. for 15 min. After terminating the reactions by aspiration and freezing in liquid nitrogen, cell monolayers were extracted with 50 mM HCl and cAMP was measured using a radioimmunoassay kit (Dupont-New England Nuclear, Boston, Mass.).

human PTH-1 receptors [2] = target: T1, human PTH-1 receptors; experiment: PLC activation (IP3 formation) in HKRK B7 cells; assay type: cell-based; conditions: HKRK B7 cells
Procedure: HKRK B7 or EW5 cells (32), subclones of LLC-PKI renal epithelial cells that stably express human or rat PTH-1 receptors (950,000 and 320,000 receptors/cell, respectively), were maintained under 5% CO2 in air in Dulbecco's modified essential medium containing 7% fetal bovine serum (FBS) and 1% penicillin/streptomycin (GIBCO-BRL, Grand Island, N.Y.). HEK-293 and COS-7 cells were cultured similarly, except that 10% FBS was used in the medium. Cells were seeded into 24-well plates two days before assay at a density of 2-2.5×10^5 cells/well (HKRK B7 or EW 5 cells) or 6×10^5 cells/well (in 6-well plates) (HEK-293 cells). In experiments involving HEK-293 cells, DNA transfections were performed 24 hr after plating and inositol radiolabel was added 24 hr thereafter (see below). COS-7 cell transfections were performed as previously described (Gardella, T. J., et al., Endocrinology 132(5):2024-2030 (1993))
PLC was activated by PTH agonists in the presence of 30 mM LiCl at 37° C. for 30 min after 16 hr of labeling with [^3H]myo-inositol (3 uCi/ml) in serum-free medium containing 0.1% bovine serum albumin. The reactions were stopped by rapid aspiration and addition of cold 5% TCA. Water-soluble radiolabeled inositol trisphosphate (IP3) was isolated after ether extraction by ion-exchange chromatography (Guo, J., et al., Endocrinology 136(9):3884-3891 (1995)). In experiments involving HEK 293 cells, cells previously transfected with human PTHR cDNA (in the pcDNA1 expression vector HKRK) using Lipofectamine (Gibco BRL) were labeled with [^3H]myo-inositol and assayed as described above, except that total water-soluble [^3H]inositol polyphosphates were collected as a single fraction from the ion-exchange columns.

fold reduction of PLC potency versus hPTH(1-34) (human PTH-1 receptors [2])	EC50 (human PTH-1 receptors [1])	fold less potent than hPTH-(1-29) in PLC activation (human PTH-1 receptors [2])	EC50 (human PTH-1 receptors [2]; read-out: EC50 for PLC activity)	Substance	AC activation (cAMP accumulation), result in words (human PTH-1 receptors [1])	PLC activation (IP3 formation), result in words (human PTH-1 receptors [2]; up to 1000 nM or 10 μM)
approximately 100 fold				GVSEIQLMHNLGKHLNSMRRVEWLRKKL [[Gly^1,Arg^19]hPTH-(1-28)]	indistinguishable from that of hPTH-(1-34) and equivalent to that by hPTH(1-34) and full	no increase in PLC activity; also recorded: strikingly and selectively impaired
	0.001 µM	approximately 5 fold	6 µM	SVSEIQLMHNLGKHLNSMERVEWLRKKL-NH2 [hPTH-(1-28)]	as effectively as did hPTH-(1-34)	
